Laboratory results: PubChem BioAssay (NCI)
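Results reflect a 48-hour exposure of cells in 96-well plates to compound at five concentrations. The concentration for 50% growth inhibition is given as GI50. Definition used: TGI = concentration required for complete inhibition of growth.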

Columns and labels:
Experiment in all cases: inhibition of tumour cell growth, NCI panel, 48 h
[1] = test system: SF-295 CNS
[2] = test system: K-562 leukemia
[3] = test system: NCI-H226 lung
[4] = test system: EKVX NSCLC
[5] = test system: SK-MEL-5 melanoma
[6] = test system: HT29 colon
[7] = test system: UACC-62 melanoma
[8] = test system: U251 CNS
[9] = test system: KM12 colon
[10] = test system: HL-60(TB) leukemia
[11] = test system: HCT-116 colon
[12] = test system: SF-268 CNS
[13] = test system: UO-31 renal
[14] = test system: SK-MEL-2 melanoma
[15] = test system: OVCAR-4 ovarian
[16] = test system: HOP-92 NSCLC
[17] = test system: NCI-H460 lung
[18] = test system: MOLT-4 leukemia
[19] = test system: HCC-2998 colon
[20] = test system: TK-10 renal
[21] = test system: RXF 393 renal
[22] = test system: HS 578T breast
[23] = test system: A549 NSCLC
[24] = test system: NCI-H522 lung
[25] = test system: MCF7 breast
[26] = test system: OVCAR-3 ovarian
[27] = test system: MALME-3M melanoma
[28] = test system: MDA-MB-435
[29] = test system: RPMI-8226 leukemia
[30] = test system: SF-539 CNS
[31] = test system: SN12C renal
[32] = test system: UACC-257 melanoma
[33] = test system: SNB-75 CNS
[34] = test system: DU-145 prostate
[35] = test system: IGROV1 ovarian
[36] = test system: T-47D breast
[37] = test system: OVCAR-8 ovarian
[38] = test system: NCI-H23 lung
[39] = test system: SK-MEL-28 melanoma
[40] = test system: LOX IMVI melanoma
[41] = test system: PC-3 prostate
[42] = test system: NCI/ADR-RES ovarian
[43] = test system: BT-549 breast
[44] = test system: SK-OV-3 ovarian
[45] = test system: MDA-MB-231 breast
[46] = test system: SW-620 colon
[47] = test system: HCT-15 colon
[48] = test system: COLO 205 colon
[49] = test system: 786-0 renal
[50] = test system: SNB-19 CNS
[51] = test system: CAKI-1 renal
[52] = test system: HOP-62 NSCLC
[53] = test system: OVCAR-5 ovarian
[54] = test system: ACHN renal

In the case of `Nc1c(C(=O)N/N=C/c2ccco2)cnn1-c1ccnc2c(C(F)(F)F)cccc12`, the GI50 [1] is reported as 38.7 µM, the TGI [1] is reported as over 100 µM and the GI50 [2] is reported as 24.2 µM. The TGI [2] was 49.1 µM, the GI50 [3] was 88.8 µM and the TGI [3] was over 100 µM. It also gave a GI50 [4] of 82.2 µM, a TGI [4] of over 100 µM and a GI50 [5] of 30 µM. It also gave a TGI [5] of over 100 µM, a GI50 [6] of 19.8 µM and a TGI [6] of 38.8 µM. The GI50 [7] was 35.9 µM, the TGI [7] was over 100 µM and the GI50 [8] was 20.5 µM. The TGI [8] was 40.5 µM, the GI50 [9] was 31.9 µM and the TGI [9] was 75 µM. The GI50 [10] was 25.8 µM, the TGI [10] was 49.5 µM and the GI50 [11] was 18.2 µM. For the same compound, the TGI [11] was 32.2 µM, the GI50 [12] was 31.6 µM and the TGI [12] was 91.6 µM. For the same compound, the GI50 [13] was 16.9 µM, the TGI [13] was 33.7 µM and the GI50 [14] was 57.4 µM. It also gave a TGI [14] of over 100 µM, a GI50 [15] of 33.5 µM and a TGI [15] of over 100 µM. For the same compound, the GI50 [16] was 25.9 µM, the TGI [16] was 80.8 µM and the GI50 [17] was 48.1 µM. It also gave a TGI [17] of over 100 µM, a GI50 [18] of 23.9 µM and a TGI [18] of 63.5 µM. It also gave a GI50 [19] of 22.8 µM, a TGI [19] of 48.5 µM and a GI50 [20] of 55.9 µM. It also gave a TGI [20] of over 100 µM, a GI50 [21] of 22.7 µM and a TGI [21] of 43.7 µM. The GI50 [22] was 35.4 µM, the TGI [22] was 89.1 µM and the GI50 [23] was over 100 µM. The TGI [23] was over 100 µM, the GI50 [24] was 29.5 µM and the TGI [24] was over 100 µM. For the same compound, the GI50 [25] was 28 µM, the TGI [25] was 65.4 µM and the GI50 [26] was 17.8 µM. The TGI [26] was 39 µM, the GI50 [27] was 73.3 µM and the TGI [27] was over 100 µM. It also gave a GI50 [28] of 26.2 µM, a TGI [28] of 75.3 µM and a GI50 [29] of 19.9 µM. For the same compound, the TGI [29] was 54.2 µM, the GI50 [30] was 19.4 µM and the TGI [30] was 41.2 µM. The GI50 [31] was 20.2 µM, the TGI [31] was 55 µM and the GI50 [32] was 95.3 µM. The TGI [32] was over 100 µM, the GI50 [33] was 28.1 µM and the TGI [33] was 97.7 µM. It also gave a GI50 [34] of 18.3 µM, a TGI [34] of 36.5 µM and a GI50 [35] of 25.4 µM. The TGI [35] was 80.1 µM, the GI50 [36] was 39.5 µM and the TGI [36] was over 100 µM. The GI50 [37] was 24.2 µM, the TGI [37] was 57.1 µM and the GI50 [38] was 35 µM. The TGI [38] was over 100 µM, the GI50 [39] was 19.1 µM and the TGI [39] was 36.8 µM. It also gave a GI50 [40] of 17.4 µM, a TGI [40] of 31.2 µM and a GI50 [41] of 19.3 µM. It also gave a TGI [41] of 49.1 µM, a GI50 [42] of 20.6 µM and a TGI [42] of 41.5 µM. It also gave a GI50 [43] of 18.2 µM, a TGI [43] of 40.7 µM and a GI50 [44] of 86.4 µM. It also gave a TGI [44] of over 100 µM, a GI50 [45] of 17.3 µM and a TGI [45] of 38.9 µM. The GI50 [46] was 19.9 µM, the TGI [46] was 37.3 µM and the GI50 [47] was 18.5 µM. The TGI [47] was 33.1 µM, the GI50 [48] was 24.9 µM and the TGI [48] was 53.8 µM. It also gave a GI50 [49] of 43.6 µM, a TGI [49] of over 100 µM and a GI50 [50] of 40.3 µM. It also gave a TGI [50] of over 100 µM, a GI50 [51] of 37.5 µM and a TGI [51] of over 100 µM. The GI50 [52] was 36.5 µM, the TGI [52] was over 100 µM and the GI50 [53] was 23.3 µM. For the same compound, the TGI [53] was 61.6 µM, the GI50 [54] was 38.6 µM and the TGI [54] was over 100 µM.
